Reference: patent publication US5882905A, “Thermostable α-L-arabinofuranosidase from Aureobasidium pullulans” (The United States of America as represented by the …, priority 1997, dated 1999)
Where “and” joins values, the source holds several entries; their conditions need not be identical. Equal values may be shown once. Entries after “also recorded” stand apart in the source; their conditions may differ.

Columns and labels:
[1] = tested on: α-L-AFase; test: Effect of metal ions and reagents on α-L-AFase activity; format: biochemical, Aureobasidium pullulans
Description: (§1) Enzyme assay. αL-arabinofuranosidase (α-L-AFase) activity was assayed in a reaction mixture (1 ml) containing 1 mM p-nitrophenyl α-L-arabinofuranoside (pNPαAF), 50 mM acetate buffer, pH 4.5 and appropriately diluted enzyme solution. After incubation at 50° C. for 30 min, the reaction was stopped by adding ice-cold 0.5M Na2 CO3 (1 ml) and the color formed was measured at 405 nm. One unit (U) of α-L-AFase activity was defined as the amount of enzyme that liberates 1 μmol p-nitrophenol (pNP) per min in the reaction mixture under these assay conditions.
Effect of metal ions and reagents.

[2] = tested on: α-L-AFase; test: Effect of L-arabinose and other sugars on α-L-AFase activity; format: biochemical, Aureobasidium pullulans
Description: as §1
Effect of L-arabinose and other sugars.

[3] = tested on: Aureobasidium pullulans Y-21792; test: Effect of carbon source on growth and α-L-arabinofuranosidase production in shake flasks; format: cell-based; conditions: for Growth (A660) / L-arabinosidase (mU/ml culture) Supernatant / L-arabinosidase (mU/ml culture) Whole broth / time of maximum enzyme production, Supernatant (figure in parenthesis) / time of maximum enzyme production, Whole broth (figure in parenthesis): carbon source 1% w/v, 28° C.; for Growth (A660): 96 h, averages of duplicates; for L-arabinosidase (mU/ml culture) Supernatant / L-arabinosidase (mU/ml culture) Whole broth: maximum in time course; for time of maximum enzyme production, Supernatant (figure in parenthesis) / time of maximum enzyme production, Whole broth (figure in parenthesis): time course over 96 h; for share of the whole culture broth α-L-AFase activity that is extracellular: cultures grown on the named carbon source
Description: Organism, cultivation and enzyme production. The color variant strain NRRL Y-21792 of A. pullulans (also available as NRRL Y-12974) was obtained from the ARS culture collection, NCAUR, Peoria, Ill. The medium used for seed culture and enzyme production was CCY medium (Slininger et al., 1982, Biotechnol. Bioeng., 23:371-384) with the following composition (g/L): 10 ml of solution A, 10 ml of solution B. 100 ml of solution C, 10 g of yeast extract and 10 g of oat spelt xylan. Solution A was a trace mineral solution having the following ingredients (per L): 1.1 g of CaO, 0.4 g of ZnO, 5.4 g of FeCl3.6 H2 O, 0.25 g of CuSO4. 5H2 O, 0.24 g of CoCl2. 6H2 O, 0.06 g of H3 BO3 and 13 ml of concentrated HCl. Solution B (per L) contained 10.1 g of MgO and 45 ml of concentrated HCl. Solution C (per L) contained 64 g of urea, 12 g of KH2 PO4 and 1.8 g of Na2 HPO4. Oat spelt xylan was sterilized separately. The pH of the medium was adjusted to 5.0 with 1M HCl before inoculation. A 125-ml Erlenmeyer flask containing 50 ml of medium with oat spelt xylan (1%, w/v) as a carbon source was inoculated with a loopful of cells taken from a stock slant and incubated at 28° C. on a rotary shaker (200 rpm) for 2 days. The shake flasks (250-ml Erlenmeyer flask containing 100 ml medium with 1% oat spelt xylan) were inoculated with 2 ml of this culture and cultivated on a rotary shaker (200 rpm) at 28° C. After 3 days, the cells were removed from the culture broth by centrifugation (18,000×g, 20 min). The resulting supernatant solution was used as the crude enzyme preparation.
Medium and enzyme production. The media used for seed culture and enzyme production were prepared as described in Example 1 with the exception of the particular carbon source. The shake flasks (125-ml Erlenmeyer flask containing 50 ml medium) were inoculated with 2 ml of seed culture (prepared using L-arabinose as carbon source) and cultivated on a rotary shaker (200 rpm) at 28° C. for 4 days. At intervals, ~2 ml of the whole culture broth were withdrawn, and the cells and unutilized insoluble substrates were removed from the culture broth by centrifugation (18,000×g, 20 min).
Analytical procedures. α-L-AFase activity was assayed as described in Example 1. Cell growth was monitored by measuring optical density of the culture broth at 660 nm (A660).

[4] = biological target: α-L-AFase from P. capsulatum; conditions: Filho et al.; read-out: Ki (competitive inhibition); cited from earlier work
[5] = tested on: α-L-AFase from A. nidulans; conditions: L-Arabinose at 80 mM; Fernandez-Espinar et al.; cited from earlier work
[6] = tested on: purified α-L-AFase; test: Substrate specificity and kinetic analysis with aryl-glycosides; format: biochemical, Aureobasidium pullulans; conditions: for Relative initial rate of hydrolysis (percentage of that obtained with pNPαAF): substrate 4 mM, enzyme 28 mU/ml, 15 min reaction
Description: as §1
(§2) Other methods. Protein was estimated by the method of Lowry et al. (1951, J. Biol. Chem., 193:265-275) with bovine serum albumin as the standard. Protein in the column effluents was monitored by measuring absorbance at 280 nm. Sodium dodecyl sulfate-polyacrylamide gel electrophoresis (SDS-PAGE) was performed on a 7.5% gel according to Laemmli (1970, Nature, 227:680-685). The molecular weight of the native enzyme was determined by gel filtration on Bio-Gel A-0.5m as described by Andrews (1965, Biochem. J., 91:595-606), using apoferritin (MW 443,000), sweet potato β-amylase (200,000), yeast alcohol dehydrogenase (150,000), bovine serum albumin (66,000) and ovalbumin (45,000) as standard proteins. […] The Km and Vmax values were determined by the double-reciprocal plot method of Lineweaver-Burk (1934, J. Am. Chem. Soc., 56:658-666) using the KINET software program. Arabinose analysis was performed by HPLC (Spectra-Physics, San Jose, Calif.) using an ion moderated partition chromatography column (Aminex HPX-87C). The column was maintained at 85° C., and the sugars were eluted with Milli-Q water at a flow rate of 0.6 ml/min. Peaks were detected by refractive index, and identified and quantified by comparison to retention times of authentic standards (L-arabinose, D-glucose, D-xylose).
Substrate specificity and kinetic analysis. Relative initial rates of hydrolysis of p-nitrophenyl-α-L-arabinopyranoside, p-nitrophenyl-β-D-glucoside, p-nitrophenyl-β-D-glucoside, p-nitrophenyl-β-D-xyloside, p-nitrophenyl-β-D-cellobioside and p-nitrophenyl-β-D-galactoside (4 mM each) by the purified α-L-AFase (28 mU/ml) were 3.4, 2.3, 1.7, 3.1, 0.0, and 0.1%, respectively (expressed as a percentage of that obtained with pNPαAF at pH 4.5 and 75° C., 15 min reaction). The rate dependence of the enzymatic reaction on the pNPαAF concentration at pH 4.5 and 75° C. followed Michaelis-Menten kinetics.

[7] = tested on: purified α-L-AFase; test: Hydrolysis of arabinan, debranched arabinan and arabinoxylans (arabinose by HPLC); format: biochemical, Aureobasidium pullulans
Description: FIG. 4. Time course of arabinan (1%, w/v) hydrolysis by purified α-L-arabinofuranosidase (0.445 U/ml) from A. pullulans Y-21792 at pH 4.5 and 50° C.
as §2, with “Arabinose analysis was performed by HPLC (Spectra-Physics, San Jose, Calif.) using an ion moderated partition chromatography column (Aminex HPX-87C). The column was maintained at 85° C., and the sugars were eluted with Milli-Q water at a flow rate of 0.6 ml/min.” left out
Hydrolysis of arabinan, debranched arabinan and arabinoxylans. […] Only arabinose was detected in the reaction product. […]

## O[C@H](CS)[C@H](O)CS (racemic) [DTT, dithiothreitol, reference compound]
[1]; 10 mM
  effect on enzyme activity: not affected; also recorded: not inhibited

## [Ca+2] [Ca^2+]
[1]; 5 mM
  requirement of metal ion for activity: did not require

## [Co+2] [Co^2+]
[1]; 0.5 mM
  requirement of metal ion for activity: did not require

## O=C[C@H](O)[C@@H](O)[C@@H](O)CO [L-arabinose]
[2]; up to 1.2M (21.6%)
  inhibition of α-L-AFase activity: substantially no inhibition; also recorded: not at all inhibitory; also recorded: not inhibited
[3]
  Growth (A660): 7.6
  L-arabinosidase (mU/ml culture) Supernatant: 199 mU/ml culture
  L-arabinosidase (mU/ml culture) Whole broth: 500 mU/ml culture
  time of maximum enzyme production, Supernatant (figure in parenthesis): 48
  time of maximum enzyme production, Whole broth (figure in parenthesis): 58
  share of the whole culture broth α-L-AFase activity that is extracellular: 40%
[4]
  Ki: 16.4 mM
[5]
  reduction of the hydrolytic activity: 40%

## OC[C@H](O)C(O)[C@@H](O)CO [L-arabitol]
[2]; each at 0.11M
  inhibition of α-L-AFase activity: did not inhibit
[3]
  Growth (A660): 7.2
  L-arabinosidase (mU/ml culture) Supernatant: 95 mU/ml culture
  L-arabinosidase (mU/ml culture) Whole broth: 441 mU/ml culture
  time of maximum enzyme production, Supernatant (figure in parenthesis): 48
  time of maximum enzyme production, Whole broth (figure in parenthesis): 34
  share of the whole culture broth α-L-AFase activity that is extracellular: 22%

## [Mg+2] [Mg^2+]
[1]; 5 mM
  requirement of metal ion for activity: did not require

## [Mn+2] [Mn^2+]
[1]; 5 mM
  requirement of metal ion for activity: did not require

## O=C[C@H](O)[C@@H](O)[C@H](O)CO [Xylose]
[2]; each at 0.11M
  inhibition of α-L-AFase activity: did not inhibit
[3]
  Growth (A660): 8.0
  L-arabinosidase (mU/ml culture) Supernatant: 88 mU/ml culture
  L-arabinosidase (mU/ml culture) Whole broth: 129 mU/ml culture
  time of maximum enzyme production, Supernatant (figure in parenthesis): 48
  time of maximum enzyme production, Whole broth (figure in parenthesis): 48
  share of the whole culture broth α-L-AFase activity that is extracellular: About 70%

## O=C[C@H](O)[C@@H](O)[C@@H](O)[C@H](O)CO [galactose]
[2]; each at 0.11M
  inhibition of α-L-AFase activity: did not inhibit

## O=C[C@H](O)[C@@H](O)[C@H](O)[C@H](O)CO [glucose]
[2]; each at 0.11M
  inhibition of α-L-AFase activity: did not inhibit

## O=C[C@@H](O)[C@@H](O)[C@H](O)[C@H](O)CO [mannose]
[2]; each at 0.11M
  inhibition of α-L-AFase activity: did not inhibit

## O=[N+]([O-])c1ccc(O[C@@H]2OC[C@H](O)[C@H](O)[C@H]2O)cc1 [p-nitrophenyl-α-L-arabinopyranoside]
[6]; pH 4.5 and 75° C.
  Relative initial rate of hydrolysis (percentage of that obtained with pNPαAF): 3.4%

## O=[N+]([O-])c1ccc(O[C@@H]2O[C@H](CO)[C@@H](O[C@@H]3O[C@H](CO)[C@@H](O)[C@H](O)[C@H]3O)[C@H](O)[C@H]2O)cc1 [p-nitrophenyl-β-D-cellobioside]
[6]; pH 4.5 and 75° C.
  Relative initial rate of hydrolysis (percentage of that obtained with pNPαAF): 0.0%

## O=[N+]([O-])c1ccc(O[C@@H]2O[C@H](CO)[C@H](O)[C@H](O)[C@H]2O)cc1 [p-nitrophenyl-β-D-galactoside]
[6]; pH 4.5 and 75° C.
  Relative initial rate of hydrolysis (percentage of that obtained with pNPαAF): 0.1%

## O=[N+]([O-])c1ccc(O[C@@H]2O[C@H](CO)[C@@H](O)[C@H](O)[C@H]2O)cc1 [p-nitrophenyl-β-D-glucoside]
[6]; pH 4.5 and 75° C.
  Relative initial rate of hydrolysis (percentage of that obtained with pNPαAF): 2.3% and 1.7%

## O=[N+]([O-])c1ccc(O[C@@H]2OC[C@@H](O)[C@H](O)[C@H]2O)cc1 [p-nitrophenyl-β-D-xyloside]
[6]; pH 4.5 and 75° C.
  Relative initial rate of hydrolysis (percentage of that obtained with pNPαAF): 3.1%

## O=C(O)c1cc[c]([Hg][Cl])cc1 [pCMB, p-chloromercuribenzoic acid, reference compound]
[1]; 0.2 mM
  effect on enzyme activity: not affected; also recorded: not inhibited

## O=[N+]([O-])c1ccc(O[C@@H]2O[C@@H](CO)[C@H](O)[C@H]2O)cc1 [pNPαAF, p-nitrophenyl α-L-arabinofuranoside]
[6]; pH 4.5 and 75° C., reciprocal plot
  Vmax: 6.99 μmol pNP. min^-1.mg^-1 protein
[6]; pH 4.5 and 75° C., reciprocal plot, read-out: apparent Km
  Km: 260 µM
[6]; tested up to 8 mM
  Substrate inhibition: not observed; also recorded: not inhibited

## OC[C@@H](O)[C@H](O)[C@@H](O)CO [xylitol]
[2]; each at 0.11M
  inhibition of α-L-AFase activity: did not inhibit
[3]
  Growth (A660): 9.1
  L-arabinosidase (mU/ml culture) Supernatant: 47 mU/ml culture
  L-arabinosidase (mU/ml culture) Whole broth: 94 mU/ml culture
  time of maximum enzyme production, Supernatant (figure in parenthesis): 58
  time of maximum enzyme production, Whole broth (figure in parenthesis): 48

## arabinogalactan
[7]
  arabinose detected by HPLC as product of hydrolysis: no arabinose was detected
[3]
  Growth (A660): 3.1
  L-arabinosidase (mU/ml culture) Supernatant: 9 mU/ml culture
  L-arabinosidase (mU/ml culture) Whole broth: 45 mU/ml culture
  time of maximum enzyme production, Supernatant (figure in parenthesis): 34
  time of maximum enzyme production, Whole broth (figure in parenthesis): 34
